Results on 31 compounds are retold here after patent US10005767B2, “Compositions and methods for inhibition of the JAK pathway” (Rigel Pharmaceuticals, Inc., priority 2009, dated 2018).

Structures can show the parent of a compound that is named as a salt. Where only a bound is given, the exact number is not on record here.

The subject of one test is human primary T-cells, IL-2 stimulated proliferation (JAK-1 and JAK-3 dependent; reported as JAK3 activity). Put plainly: Human primary T-cell proliferation stimulated by IL-2 (Example 3). It counts as cell-based. To be noted: Homo sapiens, T-cell, tested under conditions described in Example 3 (IL-2 stimulated human primary T-cell proliferation); read-out: ability to inhibit JAK3 activity, IC50 range (Table V). A digest of the protocol:
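Peripheral-blood human T-cells pre-activated via TCR/CD28, IL-2-starved overnight, then cultured 72 h at 37 °C with compound in Yssel's medium containing IL-2 (80 U/mL in cell suspension). Proliferation read as viable-cell ATP by CellTiter-Glo luminescence; reduction versus control taken as JAK pathway inhibition.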
For `Cc1cnc(Nc2ccc(C(N)=O)c(N3CCC(C)CC3)c2)nc1Nc1ccc2oc(=O)[nH]c2c1` [Compound I-156, 4-[5-Methyl-4-(2-oxo-2,3-dihydro-benzooxazol-5-ylamino)-pyrimidin-2-ylamino]-2-(4-methyl-piperidin-1-yl)-benzamide], the IC50 was below 0.5 µM. For `Cc1cnc(Nc2ccc3c(c2)C(=O)CCCC3)nc1Nc1ccc2oc(=O)[nH]c2c1` [IV-2, N4-(benzo[d]oxazol-2(3H)-on-5-yl)-N2-(6,7,8,9-tetrahydro-5H-benzo[7]annulen-5-on-3-yl)-5-methylpyrimidine-2,4-diamine], the IC50 is below 0.5 µM. Still for that read-out and setting: the value for `CC(=O)N1Cc2ccc(Nc3ncc(C)c(Nc4ccc5oc(=O)[nH]c5c4)n3)cc2C1` [III-12, 5-[2-(2-Acetyl-2,3-dihydro-1H-isoindol-5-ylamino)-5-methyl-pyrimidin-4-ylamino]-3H-benzooxazol-2-one] was below 0.5 µM. For the compound `Cc1cnc(Nc2ccc(F)cc2F)nc1Nc1ccc2oc(=O)[nH]c2c1` [Compound I-456, 5-[2-(2,4-Difluoro-phenylamino)-5-methyl-pyrimidin-4-ylamino]-3H-benzooxazol-2-one], the IC50 is below 0.5 µM. Still for that read-out and setting: under `Cc1cc(F)c(Nc2ncc(C)c(Nc3ccc4oc(=O)[nH]c4c3)n2)cc1C` [Compound I-530, 5-(2-(2-fluoro-4,5-dimethylphenylamino)-5-methylpyrimidin-4-ylamino)benzo[d]oxazol-2(3H)-one] stands below 0.5 µM. As to `Cc1cc(Nc2ncc(C)c(Nc3ccc4oc(=O)[nH]c4c3)n2)ccc1-c1cccnc1` [Compound I-483, 5-(5-methyl-2-(3-methyl-4-(pyridin-3-yl)phenylamino)pyrimidin-4-ylamino)benzo[d]oxazol-2(3H)-one formate salt], the IC50 was below 0.5 µM. Same read-out and setting: the value for `CCCNC(C)c1cc(Nc2ncc(C)c(Nc3ccc4oc(=O)[nH]c4c3)n2)cc(OC)c1` (stereo not shown) [Compound I-232, 5-(2-(3-methoxy-5-(1-(propylamino)ethyl)phenylamino)-5-methylpyrimidin-4-ylamino)benzo[d]oxazol-2(3H)-one] was below 0.5 µM. For `COc1ncc(Nc2ncc(C)c(Nc3ccc4oc(=O)[nH]c4c3)n2)cc1C` [II-141, N2-(2-methoxy-3-methylpyridin-5-yl)-5-methyl-N4-(2-oxo-2,3-dihydro-1,3-benzoxazol-5-yl)-2,4-pyrimidinediamine], the IC50 was below 0.5 µM. Still for that read-out and setting: under `Cc1cnc(Nc2ccc(C(=O)Nc3ccccc3)c(C(F)(F)F)c2)nc1Nc1ccc2oc(=O)[nH]c2c1` [Compound I-219, 4-(5-methyl-4-(2-oxo-2,3-dihydrobenzo[d]oxazol-5-ylamino)pyrimidin-2-ylamino)-N-phenyl-2-(trifluoromethyl)benzamide] stands below 0.5 µM; under `Cc1cnc(Nc2ccc(N3CCN(C(=O)C(F)(F)F)[C@H](C)C3)nc2)nc1Nc1ccc2oc(=O)[nH]c2c1` [II-57, (R)-5-(5-methyl-2-(6-(3-methyl-4-(2,2,2-trifluoroacetyl)piperazin-1-yl)pyridin-3-ylamino)pyrimidin-4-ylamino)benzo[d]oxazol-2(3H)-one], below 0.5 µM.

For the compound `Cc1cc(C)cc(Nc2ncc(C)c(Nc3cc(F)c4oc(=O)[nH]c4c3)n2)c1` [Compound I-488, 5-(2-(3,5-dimethylphenylamino)-5-methylpyrimidin-4-ylamino)-7-fluorobenzo[d]oxazol-2(3H)-one], the concentration for half-maximal inhibition (IC50) was below 0.5 µM. Still for that read-out and setting: the value for `Cc1cnc(Nc2ccc(C(=O)NC3CC3)cc2)nc1Nc1ccc2oc(=O)[nH]c2c1` [Compound I-134, N-Cyclopropyl-4-[5-methyl-4-(2-oxo-2,3-dihydro-benzooxazol-5-ylamino)-pyrimidin-2-ylamino]-benzamide formate salt] was below 0.5 µM. On the same count and under the same terms, the value for `Cc1cnc(Nc2cc(Cl)cc(C#N)c2)nc1Nc1ccc2oc(=O)[nH]c2c1` [Compound I-187, 3-Chloro-5-[5-methyl-4-(2-oxo-2,3-dihydro-benzooxazol-5-ylamino)-pyrimidin-2-ylamino]-benzonitrile] was below 0.5 µM; that for `Cc1cnc(Nc2ccc(C(=O)N3CCOCC3)cc2)nc1Nc1ccc2oc(=O)[nH]c2c1` [Compound I-257, 5-(5-methyl-2-(4-(morpholine-4-carbonyl)phenylamino)pyrimidin-4-ylamino)benzo[d]oxazol-2(3H)-one] was below 0.5 µM.

The same test, now with this note: tested under conditions described in Example 3 (IL-2 stimulated human primary T-cell proliferation); read-out: ability to inhibit JAK3 activity, IC50 range (Table V).
As to `Cc1cnc(Nc2ccc(F)c(OC(C)(C)C(N)=O)c2)nc1Nc1ccc2oc(=O)[nH]c2c1` [Compound I-386, N2-[3-(1-aminocarbonyl-1-methyl)ethoxy-4-fluoro]phenyl-5-methyl-N4-(2-oxo-2,3-dihydro-1,3-benzoxazol-5-yl)-2,4-pyrimidinediamine], the IC50 was below 0.5 µM. As to `Cc1cnc(Nc2ccc3c(c2)CN(CC2CC2)C3)nc1Nc1ccc2oc(=O)[nH]c2c1` [III-7, N4-(benzo[d]oxazol-2(3H)-on-5-yl)-N2-(2-cyclopropylmethylylisoindolin-5-yl)-5-methylpyrimidine-2,4-diamine], the IC50 was below 0.5 µM. `Cc1cnc(Nc2ccc(NC(=O)c3ccccc3)cc2)nc1Nc1ccc2oc(=O)[nH]c2c1` [Compound I-308, 5-methyl-N4-(2-oxo-2,3-dihydro-1,3-benzoxazol-5-yl)-N2-(4-phenylcarbonylamino)phenyl-2,4-pyrimidinediamine]: the IC50 was below 0.5 µM. The same measure, in the same setting: under `Cc1cnc(Nc2ccc(F)c(NS(C)(=O)=O)c2)nc1Nc1ccc2oc(=O)[nH]c2c1` [Compound I-87, N2-((4-fluoro-3-methylsulfonylamino)phenyl)-N4-(2-oxo-2,3-dihydrobenzo[d]oxazol-5-yl)-5-methylpyrimidine-2,4-diamine] stands below 0.5 µM; under `Cc1ccc(Nc2ncc(C)c(Nc3ccc4oc(=O)[nH]c4c3)n2)cc1S(=O)(=O)NC(C)(C)C` [Compound I-113, N4-(benzoxazolin-2-on-5-yl)-N2-[4-methyl-3-N-(t-butyl)aminosulfonylphenyl]-5-methylpyrimidine-2,4-diamine], below 0.5 µM. On the same count and under the same terms, the value for `Cc1cnc(Nc2ccc(OC(C)(C)C#N)cc2)nc1Nc1ccc2oc(=O)[nH]c2c1` [Compound I-334, N2-[4-(1-cyano-1-methyl)ethoxy]phenyl-5-methyl-N4-(2-oxo-2,3-dihydro-1,3-benzoxazol-5-yl)-2,4-pyrimidinediamine] was below 0.5 µM; that for `Cc1cnc(Nc2ccc(S(N)(=O)=O)cc2)nc1Nc1ccc2[nH]c(=O)oc2c1` [Compound I-99, N2-((4-aminosulfonyl)phenyl)-N4-(2-oxo-2,3-dihydrobenzo[d]oxazol-6-yl)-5-methylpyrimidine-2,4-diamine] was below 0.5 µM. On the same count and under the same terms, the value for `COc1ccc(Nc2ncc(C)c(Nc3ccc4oc(=O)[nH]c4c3)n2)cc1C(F)(F)F` [Compound I-297, N2-(4-methoxy-3-trifluoromethyl)phenyl-5-methyl-N4-(2-oxo-2,3-dihydro-1,3-benzoxazol-5-yl)-2,4-pyrimidinediamine] was below 0.5 µM; that for `COc1cccc(Nc2ncc(C)c(Nc3ccc4oc(=O)[nH]c4c3)n2)c1` [Compound I-337, N2-(3-methoxy)phenyl-5-methyl-N4-(2-oxo-2,3-dihydro-1,3-benzoxazol-5-yl)-2,4-pyrimidinediamine] was below 0.5 µM; that for `Cc1cnc(Nc2ccc(S(N)(=O)=O)cc2)nc1Nc1ccc2oc(=O)n(C)c2c1` [Compound I-68, N2-((4-aminosulfonyl)phenyl)-N4-(3-methyl-2-oxo-2,3-dihydrobenzo[d]oxazol-5-yl)-5-methylpyrimidine-2,4-diamine] was below 0.5 µM. For the compound `Cc1cnc(Nc2cc(F)cc(OC(F)F)c2)nc1Nc1ccc2oc(=O)[nH]c2c1` [Compound I-401, N2-(3-difluoromethoxy-5-fluoro)phenyl-5-methyl-N4-(2-oxo-2,3-dihydro-1,3-benzoxazol-5-yl)-2,4-pyrimidinediamine], the IC50 is below 0.5 µM.

`Cc1cnc(Nc2ccc(F)c(Cl)c2)nc1Nc1ccc2oc(=O)[nH]c2c1` [Compound I-399, N2-(3-chloro-4-fluoro)phenyl-5-methyl-N4-(2-oxo-2,3-dihydro-1,3-benzoxazol-5-yl)-2,4-pyrimidinediamine]: the IC50 is below 0.5 µM. On the same count and under the same terms, under `Cc1cnc(Nc2ccc(C(=O)N3CCN(C)CC3)cc2)nc1Nc1ccc2oc(=O)[nH]c2c1` [Compound I-322, 5-methyl-N2-[4-(4-methylpiperazin-1-yl)carbonyl]phenyl-N4-(2-oxo-2,3-dihydro-1,3-benzoxazol-5-yl)-2,4-pyrimidinediamine] stands below 0.5 µM. On the same count and under the same terms, under `Cc1cnc(Nc2cccc(NS(C)(=O)=O)c2)nc1Nc1ccc2c(c1)oc(=O)n2C` [Compound I-73, N2-((3-methylsulfonylamino)phenyl)-N4-(3-methyl-2-oxo-2,3-dihydrobenzo[d]oxazol-6-yl)-5-methylpyrimidine-2,4-diamine] stands below 0.5 µM. On the same count and under the same terms, under `Cc1cnc(Nc2ccc(N3CCC(F)(F)CC3)cc2)nc1Nc1ccc2oc(=O)[nH]c2c1` [Compound I-279, N2-[4-(4,4-difluoropiperidinyl)]phenyl-5-methyl-N4-(2-oxo-2,3-dihydro-1,3-benzoxazol-5-yl)-2,4-pyrimidinediamine] stands below 0.5 µM; under `Cc1cnc(Nc2cccc(OCC(=O)N3CCOCC3)c2)nc1Nc1ccc2oc(=O)[nH]c2c1` [Compound I-320, 5-methyl-N2-[3-(morpholinocarbonylmethoxy)]phenyl-N4-(2-oxo-2,3-dihydro-1,3-benzoxazol-5-yl)-2,4-pyrimidinediamine], below 0.5 µM; under `Cc1cnc(Nc2ccc(F)c(NS(C)(=O)=O)c2)nc1Nc1ccc2[nH]c(=O)oc2c1` [Compound I-105, N2-((4-fluoro-3-methylsulfonylamino)phenyl)-N4-(2-oxo-2,3-dihydrobenzo[d]oxazol-6-yl)-5-methylpyrimidine-2,4-diamine], above 10 µM.
